Experimental data published in ChEMBL document CHEMBL5291721, “A preclinical secondary pharmacology resource illuminates target-adverse drug reaction associations of marketed drugs” (Nat Commun, 2023).

Legend:
Adenosine receptor A2a = Adenosine receptor A2a (Homo sapiens, UniProt P29274)
[1] = target: T1, Alpha-2C adrenergic receptor (Homo sapiens, UniProt P18825); format: functional
T1 sequence (P18825 whole entry): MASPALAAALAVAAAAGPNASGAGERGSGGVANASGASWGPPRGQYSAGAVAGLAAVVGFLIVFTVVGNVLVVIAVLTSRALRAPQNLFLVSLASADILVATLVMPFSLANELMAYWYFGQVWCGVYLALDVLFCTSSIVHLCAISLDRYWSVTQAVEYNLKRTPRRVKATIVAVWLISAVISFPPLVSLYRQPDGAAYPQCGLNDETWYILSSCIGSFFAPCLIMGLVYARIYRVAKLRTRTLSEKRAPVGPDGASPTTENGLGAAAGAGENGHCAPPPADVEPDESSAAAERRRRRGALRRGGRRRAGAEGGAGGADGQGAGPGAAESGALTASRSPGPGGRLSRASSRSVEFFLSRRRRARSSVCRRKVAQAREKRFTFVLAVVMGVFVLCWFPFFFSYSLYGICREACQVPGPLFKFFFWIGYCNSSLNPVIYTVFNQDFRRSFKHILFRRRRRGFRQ

B2 bradykinin receptor = target: T2, B2 bradykinin receptor (Homo sapiens, UniProt P30411)
T2 sequence (P30411 whole entry): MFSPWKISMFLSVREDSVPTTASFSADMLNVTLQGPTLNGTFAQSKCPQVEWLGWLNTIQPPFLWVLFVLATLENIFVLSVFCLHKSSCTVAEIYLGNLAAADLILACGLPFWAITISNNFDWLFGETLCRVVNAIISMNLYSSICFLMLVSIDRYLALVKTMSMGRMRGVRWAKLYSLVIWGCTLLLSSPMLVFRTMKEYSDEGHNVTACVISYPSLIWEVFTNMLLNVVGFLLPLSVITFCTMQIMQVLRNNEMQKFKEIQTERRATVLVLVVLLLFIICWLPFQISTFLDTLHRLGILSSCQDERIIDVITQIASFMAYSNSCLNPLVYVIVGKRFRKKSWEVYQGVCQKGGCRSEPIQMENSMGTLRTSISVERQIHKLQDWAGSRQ

[2] = target: Glutamate receptor ionotropic, NMDA 1 (Rattus norvegicus, UniProt P35439)
[3] = target: T3, 5-hydroxytryptamine receptor 2C (Homo sapiens, UniProt P28335)
T3 sequence (P28335 whole entry): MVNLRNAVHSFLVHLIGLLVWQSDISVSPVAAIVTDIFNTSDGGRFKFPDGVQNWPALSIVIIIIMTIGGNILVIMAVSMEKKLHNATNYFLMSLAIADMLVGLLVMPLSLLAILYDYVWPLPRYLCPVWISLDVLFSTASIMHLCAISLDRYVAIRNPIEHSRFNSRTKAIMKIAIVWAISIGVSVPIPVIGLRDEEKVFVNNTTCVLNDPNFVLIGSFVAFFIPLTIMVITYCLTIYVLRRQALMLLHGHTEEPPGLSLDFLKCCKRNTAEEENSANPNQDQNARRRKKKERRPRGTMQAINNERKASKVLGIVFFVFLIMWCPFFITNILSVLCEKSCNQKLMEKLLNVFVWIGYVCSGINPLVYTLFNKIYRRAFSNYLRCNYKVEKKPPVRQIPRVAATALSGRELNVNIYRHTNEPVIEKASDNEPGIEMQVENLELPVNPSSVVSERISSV

[4] = target: T4, 5-hydroxytryptamine receptor 3A (Homo sapiens, UniProt P46098); format: functional
T4 sequence (P46098 whole entry): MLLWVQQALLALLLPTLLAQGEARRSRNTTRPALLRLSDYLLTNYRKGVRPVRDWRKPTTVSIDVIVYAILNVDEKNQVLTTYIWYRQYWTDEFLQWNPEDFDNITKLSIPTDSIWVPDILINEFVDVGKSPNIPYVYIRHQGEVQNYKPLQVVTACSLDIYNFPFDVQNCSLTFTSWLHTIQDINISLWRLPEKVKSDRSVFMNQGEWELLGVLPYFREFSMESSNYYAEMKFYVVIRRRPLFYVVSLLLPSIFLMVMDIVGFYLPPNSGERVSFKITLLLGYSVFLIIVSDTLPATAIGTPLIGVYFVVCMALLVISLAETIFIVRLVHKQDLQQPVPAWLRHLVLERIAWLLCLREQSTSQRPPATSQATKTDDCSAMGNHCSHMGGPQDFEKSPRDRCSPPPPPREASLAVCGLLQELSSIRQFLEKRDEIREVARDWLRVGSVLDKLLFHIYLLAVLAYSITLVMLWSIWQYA

[5] = target: Voltage-gated inwardly rectifying potassium channel KCNH2 (Homo sapiens, UniProt Q12809); format: functional
[6] = target: T5, Neuropeptide Y receptor type 1 (Homo sapiens, UniProt P25929); settings: read-out: AC50
T5 sequence (P25929 whole entry): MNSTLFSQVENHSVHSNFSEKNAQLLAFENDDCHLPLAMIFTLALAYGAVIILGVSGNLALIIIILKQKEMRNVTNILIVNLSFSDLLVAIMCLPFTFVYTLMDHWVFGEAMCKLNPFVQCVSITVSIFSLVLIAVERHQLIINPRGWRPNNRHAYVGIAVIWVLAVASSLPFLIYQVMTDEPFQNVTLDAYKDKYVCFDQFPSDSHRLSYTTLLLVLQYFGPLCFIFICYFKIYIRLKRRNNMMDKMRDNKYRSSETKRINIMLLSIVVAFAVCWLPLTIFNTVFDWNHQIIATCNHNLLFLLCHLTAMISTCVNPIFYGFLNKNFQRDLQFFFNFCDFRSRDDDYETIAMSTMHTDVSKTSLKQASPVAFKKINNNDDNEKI

[7] = target: Delta-type opioid receptor (Homo sapiens, UniProt P41143)
[8] = target: cGMP-inhibited 3',5'-cyclic phosphodiesterase 3A (Homo sapiens, UniProt Q14432); format: functional
Further: assay procedure not described here.

Delta-type opioid receptor, sequence (P41143 whole entry): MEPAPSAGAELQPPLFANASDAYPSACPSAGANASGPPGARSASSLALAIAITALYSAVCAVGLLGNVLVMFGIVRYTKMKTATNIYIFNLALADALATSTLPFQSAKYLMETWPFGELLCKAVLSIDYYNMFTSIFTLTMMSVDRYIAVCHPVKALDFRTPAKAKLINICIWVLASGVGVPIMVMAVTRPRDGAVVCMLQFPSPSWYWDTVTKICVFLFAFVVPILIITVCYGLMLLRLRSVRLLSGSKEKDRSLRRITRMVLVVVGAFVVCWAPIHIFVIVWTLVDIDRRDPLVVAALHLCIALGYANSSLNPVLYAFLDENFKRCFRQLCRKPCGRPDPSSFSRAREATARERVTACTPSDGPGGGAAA
Adenosine receptor A2a, sequence (P29274 whole entry): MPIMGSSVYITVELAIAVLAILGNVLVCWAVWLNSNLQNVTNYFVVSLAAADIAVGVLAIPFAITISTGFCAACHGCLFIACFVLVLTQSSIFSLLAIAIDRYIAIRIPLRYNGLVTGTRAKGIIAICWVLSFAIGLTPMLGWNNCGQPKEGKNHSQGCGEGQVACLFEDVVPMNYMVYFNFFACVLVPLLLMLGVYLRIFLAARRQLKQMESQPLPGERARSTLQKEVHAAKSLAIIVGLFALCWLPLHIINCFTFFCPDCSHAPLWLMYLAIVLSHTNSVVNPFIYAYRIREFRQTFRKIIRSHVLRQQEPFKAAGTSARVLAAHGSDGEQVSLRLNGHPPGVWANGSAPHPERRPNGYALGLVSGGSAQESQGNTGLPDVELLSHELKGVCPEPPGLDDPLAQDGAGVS
cGMP-inhibited 3',5'-cyclic phosphodiesterase 3A, sequence (Q14432 whole entry): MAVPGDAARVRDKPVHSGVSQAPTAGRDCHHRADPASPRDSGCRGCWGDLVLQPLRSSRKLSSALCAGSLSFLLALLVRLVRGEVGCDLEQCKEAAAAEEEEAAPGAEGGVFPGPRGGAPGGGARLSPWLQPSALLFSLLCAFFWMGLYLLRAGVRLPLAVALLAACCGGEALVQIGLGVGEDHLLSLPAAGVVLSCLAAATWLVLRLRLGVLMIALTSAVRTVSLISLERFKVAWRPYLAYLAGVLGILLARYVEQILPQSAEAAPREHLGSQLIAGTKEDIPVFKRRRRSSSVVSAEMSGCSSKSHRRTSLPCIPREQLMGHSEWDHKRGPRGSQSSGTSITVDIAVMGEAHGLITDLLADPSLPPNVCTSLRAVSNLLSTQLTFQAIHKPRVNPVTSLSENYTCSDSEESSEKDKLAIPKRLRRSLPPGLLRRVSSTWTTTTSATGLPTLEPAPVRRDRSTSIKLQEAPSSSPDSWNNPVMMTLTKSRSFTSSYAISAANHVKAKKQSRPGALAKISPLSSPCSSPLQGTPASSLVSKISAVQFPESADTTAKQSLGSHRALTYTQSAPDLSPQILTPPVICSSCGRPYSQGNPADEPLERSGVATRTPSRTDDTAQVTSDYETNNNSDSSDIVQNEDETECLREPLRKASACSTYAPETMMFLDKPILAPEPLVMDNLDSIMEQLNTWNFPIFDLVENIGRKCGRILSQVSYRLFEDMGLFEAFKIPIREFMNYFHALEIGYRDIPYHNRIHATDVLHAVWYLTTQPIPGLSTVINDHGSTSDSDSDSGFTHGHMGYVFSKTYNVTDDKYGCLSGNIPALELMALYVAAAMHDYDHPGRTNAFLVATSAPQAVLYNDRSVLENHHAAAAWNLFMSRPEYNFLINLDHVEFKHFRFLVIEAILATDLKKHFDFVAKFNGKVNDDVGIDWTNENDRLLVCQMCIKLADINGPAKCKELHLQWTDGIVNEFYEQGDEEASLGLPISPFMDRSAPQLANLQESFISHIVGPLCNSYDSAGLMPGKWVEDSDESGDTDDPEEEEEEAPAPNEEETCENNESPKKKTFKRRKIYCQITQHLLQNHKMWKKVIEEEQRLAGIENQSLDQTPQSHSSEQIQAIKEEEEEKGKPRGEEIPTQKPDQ
Voltage-gated inwardly rectifying potassium channel KCNH2, sequence (Q12809 whole entry): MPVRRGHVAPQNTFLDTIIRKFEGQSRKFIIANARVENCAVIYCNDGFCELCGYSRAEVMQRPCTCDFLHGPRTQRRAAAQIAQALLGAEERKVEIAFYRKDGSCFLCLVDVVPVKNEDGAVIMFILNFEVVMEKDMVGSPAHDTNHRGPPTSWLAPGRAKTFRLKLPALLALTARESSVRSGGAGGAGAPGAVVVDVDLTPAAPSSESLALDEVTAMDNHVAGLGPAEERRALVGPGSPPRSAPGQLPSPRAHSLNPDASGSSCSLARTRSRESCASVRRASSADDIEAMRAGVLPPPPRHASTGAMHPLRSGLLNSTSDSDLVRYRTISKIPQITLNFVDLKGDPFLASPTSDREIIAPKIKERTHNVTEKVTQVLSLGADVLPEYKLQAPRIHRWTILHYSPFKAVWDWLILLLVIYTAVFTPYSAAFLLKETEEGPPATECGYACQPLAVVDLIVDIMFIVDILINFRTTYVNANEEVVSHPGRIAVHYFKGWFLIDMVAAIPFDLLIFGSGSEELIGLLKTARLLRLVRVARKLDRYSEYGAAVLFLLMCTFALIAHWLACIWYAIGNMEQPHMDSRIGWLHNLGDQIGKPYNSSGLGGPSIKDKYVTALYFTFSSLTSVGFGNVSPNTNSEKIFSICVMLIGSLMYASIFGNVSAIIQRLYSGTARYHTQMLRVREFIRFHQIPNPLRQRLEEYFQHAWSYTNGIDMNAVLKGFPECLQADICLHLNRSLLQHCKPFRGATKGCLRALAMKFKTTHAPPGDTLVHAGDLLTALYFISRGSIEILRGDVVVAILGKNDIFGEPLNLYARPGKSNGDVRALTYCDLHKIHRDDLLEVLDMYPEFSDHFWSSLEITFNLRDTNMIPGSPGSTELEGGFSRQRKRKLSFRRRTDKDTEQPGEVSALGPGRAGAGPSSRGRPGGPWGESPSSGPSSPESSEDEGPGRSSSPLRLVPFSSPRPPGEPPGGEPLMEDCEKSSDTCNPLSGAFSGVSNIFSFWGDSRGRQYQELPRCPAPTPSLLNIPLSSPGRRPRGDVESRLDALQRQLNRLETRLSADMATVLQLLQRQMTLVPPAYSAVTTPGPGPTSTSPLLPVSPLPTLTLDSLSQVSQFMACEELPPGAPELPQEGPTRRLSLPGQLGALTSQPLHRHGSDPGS

Compound | AC50 (Adenosine receptor A2a) | AC50 [1] | AC50 (B2 bradykinin receptor) | AC50 [2] | AC50 [3] | AC50 [4] | AC50 [5] | AC50 [6] | AC50 [7] | AC50 [8]
Nc1ncn([C@H]2C[C@H](O)[C@@H](CO)O2)c(=O)n1 [DECITABINE] | > 30 µM | > 30 µM | > 30 µM | > 30 µM | > 30 µM | > 30 µM | > 30 µM | > 30 µM | > 30 µM | > 30 µM
CC(=O)N[C@@H](CS)C(=O)O [ACETYLCYSTEINE] | > 30 µM | > 30 µM | > 30 µM | > 30 µM | > 30 µM | > 30 µM | > 30 µM | > 30 µM | > 30 µM | > 30 µM
Cc1noc(NS(=O)(=O)c2ccc(N)cc2)c1C [SULFISOXAZOLE] | > 10 µM | > 10 µM | > 10 µM | > 10 µM | > 30 µM | > 30 µM | > 30 µM | > 10 µM | > 30 µM | > 30 µM
COCC1=C(C(=O)O)N2C(=O)[C@@H](NC(=O)/C(=N\OC)c3csc(N)n3)[C@H]2SC1 [CEFPODOXIME] | > 30 µM | > 30 µM | > 30 µM | > 30 µM | 0.12 µM | > 30 µM | > 30 µM | > 30 µM | > 30 µM | > 30 µM
C[C@]12CCC(=O)C(O)=C1CC[C@@H]1[C@@H]2CC[C@]2(C)C(=O)CC[C@@H]12 [FORMESTANE] | > 30 µM | > 30 µM | > 30 µM | > 30 µM | > 30 µM | > 30 µM | > 30 µM | > 30 µM | > 30 µM | > 30 µM
CCC(=O)O[C@H]1CC[C@H]2[C@@H]3CCC4=CC(=O)CC[C@]4(C)[C@H]3CC[C@]12C [TESTOSTERONE PROPIONATE] | > 10 µM | > 10 µM | > 10 µM | > 10 µM | > 30 µM | > 30 µM | > 30 µM | > 10 µM | > 30 µM | > 10 µM
CCCCC(=O)O[C@]1(C(=O)CO)[C@@H](C)C[C@H]2[C@@H]3CCC4=CC(=O)C=C[C@]4(C)[C@@]3(F)[C@@H](O)C[C@@]21C [BETAMETHASONE VALERATE] | > 30 µM | > 10 µM | > 30 µM | > 10 µM | > 30 µM | > 30 µM | > 30 µM | > 30 µM | > 30 µM | > 30 µM
C[C@]12CC[C@@H]3c4ccc(O)cc4C[C@@H](CCCCCCCCC[S+]([O-])CCCC(F)(F)C(F)(F)F)[C@H]3[C@@H]1CC[C@@H]2O (stereo not given in full) [FULVESTRANT] | > 30 µM | > 30 µM | > 30 µM | > 30 µM | > 30 µM | > 30 µM | > 30 µM | > 30 µM | > 30 µM | > 30 µM
CNC1=Nc2ccc(Cl)cc2C(c2ccccc2)=[N+]([O-])C1 [CHLORDIAZEPOXIDE] | > 30 µM | > 10 µM | > 30 µM | > 10 µM | > 30 µM | > 30 µM | > 30 µM | > 30 µM | > 30 µM | > 30 µM
CCC[C@H](NC(=O)[C@@H]1[C@H]2CCC[C@H]2CN1C(=O)[C@@H](NC(=O)[C@@H](NC(=O)c1cnccn1)C1CCCCC1)C(C)(C)C)C(=O)C(=O)NC1CC1 | > 30 µM | > 10 µM | > 30 µM | > 10 µM | > 30 µM | > 30 µM | > 30 µM | > 30 µM | > 30 µM | > 30 µM
CC(C)(C)C(=O)OCC(=O)[C@H]1CC[C@H]2[C@@H]3CCC4=CC(=O)CC[C@]4(C)[C@H]3CC[C@]12C [DESOXYCORTICOSTERONE PIVALATE] | > 10 µM | > 10 µM | > 10 µM | > 10 µM | > 30 µM | > 30 µM | > 30 µM | > 10 µM | > 30 µM | > 30 µM
C=CCNc1nc(NCC=C)nc(N2CCN(C(c3ccc(F)cc3)c3ccc(F)cc3)CC2)n1 [ALMITRINE] | > 30 µM | > 30 µM | > 30 µM | > 30 µM | > 30 µM | > 30 µM | > 30 µM | > 30 µM | > 30 µM | > 30 µM
Clc1ccc2c(N3CCN(CCCN4CCN(c5ccnc6cc(Cl)ccc56)CC4)CC3)ccnc2c1 [PIPERAQUINE] | > 30 µM | > 30 µM | > 30 µM | > 30 µM | > 30 µM | > 30 µM | 2.56 µM | > 30 µM | > 30 µM | 4.7 µM
CC1OC2(CS1)CN1CCC2CC1 (stereo not given) [CEVIMELINE] | > 10 µM | > 30 µM | > 10 µM | > 10 µM | > 30 µM | > 30 µM | > 30 µM | > 10 µM | > 30 µM | > 30 µM
CC(N)C(O)c1ccccc1 (stereo not given) [PHENYLPROPANOLAMINE] | > 30 µM | 7.3 µM | > 30 µM | > 10 µM | > 30 µM | > 10 µM | > 30 µM | > 30 µM | > 10 µM | > 30 µM
CCC(=O)O[C@]1(C(=O)SCF)[C@H](C)C[C@H]2[C@@H]3C[C@H](F)C4=CC(=O)C=C[C@]4(C)[C@@]3(F)[C@@H](O)C[C@@]21C [FLUTICASONE PROPIONATE] | > 30 µM | > 30 µM | > 30 µM | > 30 µM | > 30 µM | > 30 µM | > 30 µM | > 30 µM | > 30 µM | > 30 µM
CC(C(=O)O)c1ccc(CC2CCCC2=O)cc1 (stereo not given) [LOXOPROFEN] | > 30 µM | > 30 µM | > 30 µM | > 30 µM | > 30 µM | > 30 µM | > 30 µM | > 30 µM | > 30 µM | > 30 µM
